In PMC3358478 (Chemical Research in Toxicology, 2012):
Entries after “also recorded” stand apart in the source; their conditions may differ.

Columns and labels:
Human P450 1A2 = biological target: T1, Human P450 1A2 (Homo sapiens, UniProt P05177); assay: Methoxyresorufin O-demethylation; assay type: biochemical; conditions: for inhibition behavior toward P450 1A2: concentration- and NADPH-dependence; for difference in the IC50 values, more effective on P450 1A2 than P450 1A1: IC50 1A1 vs 1A2
T1 sequence (P05177 1-516): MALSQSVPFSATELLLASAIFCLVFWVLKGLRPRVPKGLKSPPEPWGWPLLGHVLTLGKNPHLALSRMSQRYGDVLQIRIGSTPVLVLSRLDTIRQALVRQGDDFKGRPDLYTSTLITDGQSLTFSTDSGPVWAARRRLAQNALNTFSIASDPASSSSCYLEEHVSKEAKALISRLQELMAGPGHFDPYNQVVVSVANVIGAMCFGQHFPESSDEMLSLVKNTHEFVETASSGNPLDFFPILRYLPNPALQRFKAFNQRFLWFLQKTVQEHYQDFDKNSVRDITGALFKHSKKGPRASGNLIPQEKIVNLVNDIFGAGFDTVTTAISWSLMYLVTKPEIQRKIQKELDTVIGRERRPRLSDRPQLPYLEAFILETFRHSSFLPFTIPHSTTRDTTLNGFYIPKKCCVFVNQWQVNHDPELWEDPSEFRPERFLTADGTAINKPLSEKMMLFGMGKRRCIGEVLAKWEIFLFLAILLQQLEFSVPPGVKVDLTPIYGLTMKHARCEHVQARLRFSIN

Human P450 1A1 = biological target: T2, Human P450 1A1 (Homo sapiens, UniProt P04798); assay: Ethoxyresorufin O-deethylation; assay type: biochemical; conditions: for kinact: read-out: limiting Kinact on P450 1A1
T2 sequence (P04798 1-512): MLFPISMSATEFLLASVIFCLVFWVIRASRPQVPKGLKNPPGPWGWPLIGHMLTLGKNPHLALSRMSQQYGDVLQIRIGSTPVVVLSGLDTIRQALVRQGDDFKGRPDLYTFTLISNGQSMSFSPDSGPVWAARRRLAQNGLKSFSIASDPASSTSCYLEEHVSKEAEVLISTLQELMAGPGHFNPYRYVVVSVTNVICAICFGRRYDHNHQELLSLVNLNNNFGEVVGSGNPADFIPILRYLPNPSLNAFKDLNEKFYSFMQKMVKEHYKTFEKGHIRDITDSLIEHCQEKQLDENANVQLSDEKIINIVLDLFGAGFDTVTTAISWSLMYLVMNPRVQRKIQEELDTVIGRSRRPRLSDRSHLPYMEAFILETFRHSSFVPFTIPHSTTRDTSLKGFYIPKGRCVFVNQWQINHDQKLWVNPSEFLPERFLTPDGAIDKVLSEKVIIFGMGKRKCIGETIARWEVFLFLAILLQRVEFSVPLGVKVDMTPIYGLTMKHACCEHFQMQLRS

rat P450 2B1 = biological target: T3, rat P450 2B1 (Rattus norvegicus, UniProt P00176); assay: Pentoxyresorufin O-depentylation; assay type: biochemical; conditions: for inhibition behavior toward P450 2B1: time-dependence
T3 sequence (P00176 1-491): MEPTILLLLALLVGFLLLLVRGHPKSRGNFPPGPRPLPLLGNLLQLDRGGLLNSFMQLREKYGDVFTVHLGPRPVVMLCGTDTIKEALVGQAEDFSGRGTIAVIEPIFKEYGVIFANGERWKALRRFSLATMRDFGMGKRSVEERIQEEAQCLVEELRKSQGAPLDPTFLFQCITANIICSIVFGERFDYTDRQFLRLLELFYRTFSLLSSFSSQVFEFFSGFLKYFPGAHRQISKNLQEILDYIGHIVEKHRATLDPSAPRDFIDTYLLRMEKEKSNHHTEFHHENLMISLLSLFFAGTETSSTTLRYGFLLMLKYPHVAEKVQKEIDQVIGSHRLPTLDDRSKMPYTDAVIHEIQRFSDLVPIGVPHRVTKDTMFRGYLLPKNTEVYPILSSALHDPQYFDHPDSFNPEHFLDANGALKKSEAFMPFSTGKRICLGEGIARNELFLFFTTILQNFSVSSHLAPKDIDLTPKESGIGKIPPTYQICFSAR

Human P450 2A6 = biological target: T4, Human P450 2A6 (Homo sapiens, UniProt P11509); assay: Coumarin 7-hydroxylation assay, P450 2A6 inhibition
T4 sequence (P11509 1-494): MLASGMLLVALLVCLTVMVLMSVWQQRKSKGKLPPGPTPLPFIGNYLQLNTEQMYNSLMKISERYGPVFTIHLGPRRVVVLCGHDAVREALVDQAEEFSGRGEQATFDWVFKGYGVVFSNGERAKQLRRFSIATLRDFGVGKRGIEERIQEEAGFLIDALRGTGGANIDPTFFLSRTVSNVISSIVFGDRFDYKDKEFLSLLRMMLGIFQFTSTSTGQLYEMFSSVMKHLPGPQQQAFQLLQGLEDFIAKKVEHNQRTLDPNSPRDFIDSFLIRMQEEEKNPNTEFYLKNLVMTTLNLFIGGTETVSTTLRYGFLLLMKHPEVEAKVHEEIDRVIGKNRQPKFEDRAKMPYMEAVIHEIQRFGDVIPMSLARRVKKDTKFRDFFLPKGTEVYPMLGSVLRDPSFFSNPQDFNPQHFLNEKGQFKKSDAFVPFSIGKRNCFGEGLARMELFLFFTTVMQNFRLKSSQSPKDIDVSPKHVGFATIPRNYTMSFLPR

Row | Ki (Human P450 1A1) [µM] | kinact (Human P450 1A1) [s⁻¹] | IC50 (Human P450 2A6) [µM] | Ki (Human P450 1A2) [µM] | potency toward P450 1A1 relative to P450 1A2 (Human P450 1A1; IC50 1A2 vs 1A1) | difference in the IC50 values, more effective on P450 1A2 than P450 1A1 (Human P450 1A2) | inhibition activity for P450 2A6 (Human P450 2A6; at the dose of 50 μM) | SMILES | inhibition behavior toward P450 1A2 (Human P450 1A2) | IC50 (rat P450 2B1) [µM] | kinact (rat P450 2B1; read-out: limiting Kinact on P450 2B1) [s⁻¹] | inhibition behavior toward P450 2B1 (rat P450 2B1) | inhibition behavior toward P450 1A1 (Human P450 1A1; time-, concentration- and NADPH-dependence) | inhibition activity for P450 2B1 (rat P450 2B1; at the dose of 50 μM)
1 | 3.58 | 0.00617 | > 50 | – | – | – | – | C#Cc1ccc2c(-c3ccccc3)c(C)c(=O)oc2c1 [7E3M4PC, 7-Ethynyl-3-methyl-4-phenylcoumarin] | does not show a time-dependent loss of enzymatic activity; also recorded: sole competitive inhibitor; also recorded: does not show time- and NADPH-dependent inhibition; also recorded: completely competitive | 9.16 | 0.00483 | sole mechanism-based inhibitor | – | –
2 | 0.38 | 0.00417 | > 50 | 0.65 | about five times more potent | – | – | C#Cc1ccc2cc(-c3ccccc3)c(=O)oc2c1 [7E3PC, 7-Ethynyl-3-phenylcoumarin] | mainly results from competitive inhibition and not from mechanism-based inhibition | > 50 | – | – | – | –
3 | 5.16 | 0.00517 | > 50 | 0.83 | – | – | – | C#Cc1ccc2c(C)c(-c3ccccc3)c(=O)oc2c1 [7E4M3PC, 7-Ethynyl-4-methyl-3-phenylcoumarin] | – | > 50 | – | – | – | –
4 | 38.6 | 0.0035 | > 50 | 2.65 | – | around 5 fold | – | C#Cc1ccc2c(C)cc(=O)oc2c1 [7E4MC, 7-Ethynyl-4-methylcoumarin] | – | > 50 | – | – | – | –
5 | 16.8 | 0.00383 | > 50 | 3.15 | – | around 5 fold | – | C#Cc1ccc2c(C(F)(F)F)cc(=O)oc2c1 [7E4TFC, 7-Ethynyl-4-(trifluoromethyl)coumarin] | – | 15.1 | – | competitive inhibitor | – | –
6 | 104 | 0.00567 | > 50 | 78.9 | – | – | – | C#Cc1cc2oc(=O)ccc2cc1OC [7E6MOC, 7-Ethynyl-6-methoxycoumarin] | – | > 50 | – | – | – | –
7 | – | – | > 50 | 5.83 | – | – | – | C#Cc1ccc2ccc(=O)oc2c1 [7EC, 7-Ethynylcoumarin] | – | > 50 | – | – | – | –
8 | 0.57 | 0.00567 | > 50 | 0.87 | – | – | did not show any inhibition activity | C#Cc1ccc2c(C)c(C)c(=O)oc2c1C [7ETMC, 7-Ethynyl-3,4,8-trimethylcoumarin] | – | > 50 | – | – | time-dependent inhibition; also recorded: NADPH-dependent manner | did not show any inhibition activity
